Experimental findings from patent US7252926B2, “Planographic printing plate material and preparing process of planographic printing plate” (Konica Minolta Medical & Graphic, Inc., priority 2003, dated 2007) are described below.

A short description of this data set: Solubility of the dye in methyl ethyl ketone (MEK). It is filed as physicochemical. Particulars: dye dissolved in methyl ethyl ketone; wt % at 25° C. How it is done:
An anionic dye of the present invention dissolving in an amount of not less than 1% indicates an anionic dye dissolving in methyl ethyl ketone not less than 1 wt % at 25° C. More preferably, an anionic dye dissolving in methyl ethyl ketone in an amount of not less than 1.5 wt %. And still more preferably, it is not less than 2 wt %, and specifically preferably, it is not less than 2.5 wt %.

Take `CCCCN1C(=O)C(=C2C=C(C)c3ccc(N(CC)CC)cc3O2)C(=O)N(CCCC)C1=S` [Dye1 (nonion)]: the “MEK Solubility (%)” value is 2%.

With `Cn1c(-c2ccccc2)c(/C=C/C2=[N+](C)c3cc(Cl)ccc3C2(C)C)c2ccccc21` [Dye2 (cation)], the “MEK Solubility (%)” value is given as 1%.
